Measured values reported in patent US8563730B2, “Pyrazole and fused pyrazole glucokinase activators” (Takeda San Diego, Inc., priority 2008, dated 2013).

Molecular target: T1, GK (glucokinase, residues 12-465) (Homo sapiens, UniProt P35557)
T1 construct: I.D. No. 1 corresponds to residues 12-465 of glucokinase; made in house; host or cells: DH10b-T1r E. coli
T1 sequence (P35557 with tags, fused parts or gaps isoform P35557-2): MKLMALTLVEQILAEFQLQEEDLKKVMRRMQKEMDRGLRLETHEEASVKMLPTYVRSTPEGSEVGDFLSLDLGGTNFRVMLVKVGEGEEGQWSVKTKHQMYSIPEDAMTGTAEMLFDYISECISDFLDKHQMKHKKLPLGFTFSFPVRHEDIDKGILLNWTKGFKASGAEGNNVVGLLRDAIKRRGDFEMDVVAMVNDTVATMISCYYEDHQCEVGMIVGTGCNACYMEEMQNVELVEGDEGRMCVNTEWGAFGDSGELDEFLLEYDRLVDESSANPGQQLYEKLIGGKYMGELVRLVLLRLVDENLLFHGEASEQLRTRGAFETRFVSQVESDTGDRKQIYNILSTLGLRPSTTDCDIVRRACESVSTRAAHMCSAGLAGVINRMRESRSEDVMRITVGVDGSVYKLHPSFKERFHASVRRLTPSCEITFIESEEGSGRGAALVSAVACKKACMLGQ
Assay: enzymatic glucokinase activity assay (ATP consumption, KinaseGlo luminescence)
Type: biochemical
Details: 5 μM ATP, 5 mM Glucose, reported as bins; for EC50: Kact = concentration that displays 50% of the maximal increase in GK activity, 60 min, room temperature, read-out: pKact; for Emax: calculated maximal gain in GK enzyme activity at a saturating concentration of the compound, read-out: % ACTmax
From the text: The activity of compounds as glucokinase activators may be assayed in vitro, in vivo or in a cell line. Provided below is an enzymatic glucokinase activity assay.
Purified glucokinase may be obtained as follows. […] SEQ.
The expression of recombinant glucokinase protein may be carried out by transformation and growth of DH10b-T1r E. coli cells incorporating the (pFLAG-CTC) plasmid in LB media. Protein expression can be induced in this system by the addition of IPTG to the culture medium.
Recombinant protein may be isolated from cellular extracts by passage over Sepharose Q Fast Flow resin (Pharmacia). This partially purified GK extract may then be further purified by a second passage over Poros HQ10 (Applied Biosystems). The purity of GK may be determined on denaturing SDS-PAGE gel. Purified GK may then be concentrated to a final concentration of 20.0 mg/ml. After flash freezing in liquid nitrogen, the proteins can be stored at −78° C. in a buffer containing 25 mM TRIS-HCl pH 7.6, 50 mM NaCl, and 0.5 mM TCEP.
The activation properties of compounds for GK may be determined using a black 384-well-plate format under the following reaction conditions: 25 mM Hepes pH 7.2, 25 mM NaCl, 10 mM MgCl2, 0.01% Brij35, 1 mM DTT, 5 μM ATP, 5 mM Glucose 2% DMSO. The amount of ATP consumed may be determined quantitatively by addition of equal volume of luciferase reagent (luciferase+beetle luciferin—KinaseGlo Luminescent Kinase Assay kit from Promega). The luminescence intensity may be measured by using the Analyst HT from LJL Biosystems.
The reaction mixture may then be incubated at room temperature for 60 min, and quenched and developed by addition of 10 μL of luciferase reagent. Luminescence intensities of the resulting reaction mixtures may be measured after a 10 min incubation at room temperature. The luminescence intensity may be measured by using the Analyst HT from LJL Biosystems.
pKact and % ACTmax values may be calculated by non-linear curve fitting of the compound concentrations and luminescence intensities to a standard inhibition/activation equation.

| EC50 [µM] | Emax [%] | SMILES |
| --- | --- | --- |
| ≥ 15.8 | ≤ 90 | COc1ccc2nc(NC(=O)C(CC3CCOCC3)n3cc(S(=O)(=O)C4CC4)cn3)sc2n1 (stereo not drawn) [Compound 24, 2-(4-(cyclopropylsulfonyl)-1H-pyrazol-1-yl)-N-(5-methoxythiazolo[5,4-b]pyridin-2-yl)-3-(tetrahydro-2H-pyran-4-yl)propanamide] |
| ≥ 15.8 | ≤ 90 | COc1ccc2nc(NC(=O)[C@@H](CC3CCOCC3)n3cc(S(=O)(=O)C4CC4)cn3)sc2n1 [Compound 25, (R)-2-(4-(cyclopropylsulfonyl)-1H-pyrazol-1-yl)-N-(5-methoxythiazolo[5,4-b]pyridin-2-yl)-3-(tetrahydro-2H-pyran-4-yl)propanamide] |
| ≥ 15.8 | ≤ 90 | COc1ccc2nc(NC(=O)[C@H](CC3CCOCC3)n3cc(S(=O)(=O)C4CC4)cn3)sc2n1 [Compound 26, (S)-2-(4-(cyclopropylsulfonyl)-1H-pyrazol-1-yl)-N-(5-methoxythiazolo[5,4-b]pyridin-2-yl)-3-(tetrahydro-2H-pyran-4-yl)propanamide] |
| 1.58 to 3.16 | ≤ 90 | Cc1nn(C(CC2CCOCC2)C(=O)Nc2ncc(F)s2)c(C)c1S(=O)(=O)C1CC1 (stereo not drawn) [Compound 27, 2-(4-(cyclopropylsulfonyl)-3,5-dimethyl-1H-pyrazol-1-yl)-N-(5-fluorothiazol-2-yl)-3-(tetrahydro-2H-pyran-4-yl)propanamide] |
| 3.98 to 12.6 | ≥ 111 | O=C(Nc1ncc(F)s1)C(CC1CCOCC1)n1cc(S(=O)(=O)C2CC2)cn1 (stereo not drawn) [Compound 28, 2-(4-(cyclopropylsulfonyl)-1H-pyrazol-1-yl)-N-(5-fluorothiazol-2-yl)-3-(tetrahydro-2H-pyran-4-yl)propanamide] |
| 0.398 to 1.26 | ≥ 111 | O=C(Nc1ncc(F)s1)C(CC1CCOCC1)n1cc(S(=O)(=O)c2ccc(Cl)cc2)cn1 (stereo not drawn) [Compound 29, 2-(4-(4-chlorophenylsulfonyl)-1H-pyrazol-1-yl)-N-(5-fluorothiazol-2-yl)-3-(tetrahydro-2H-pyran-4-yl)propanamide] |
| 3.98 to 12.6 | ≤ 90 | COc1ccc2nc(NC(=O)C(CC3CCOCC3)n3cc(S(=O)(=O)c4ccc(Cl)cc4)cn3)sc2n1 (stereo not drawn) [Compound 30, 2-(4-(4-chlorophenylsulfonyl)-1H-pyrazol-1-yl)-N-(5-methoxythiazolo[5,4-b]pyridin-2-yl)-3-(tetrahydro-2H-pyran-4-yl)propanamide] |
| ≥ 15.8 | ≤ 90 | O=C(Nc1ncc(F)s1)[C@@H](CC1CCOCC1)n1cc(S(=O)(=O)C2CC2)cn1 [Compound 31, (R)-2-(4-(cyclopropylsulfonyl)-1H-pyrazol-1-yl)-N-(5-fluorothiazol-2-yl)-3-(tetrahydro-2H-pyran-4-yl)propanamide] |
| 3.98 to 12.6 | 101 to 105 | O=C(Nc1ncc(F)s1)[C@H](CC1CCOCC1)n1cc(S(=O)(=O)C2CC2)cn1 [Compound 32, (S)-2-(4-(cyclopropylsulfonyl)-1H-pyrazol-1-yl)-N-(5-fluorothiazol-2-yl)-3-(tetrahydro-2H-pyran-4-yl)propanamide] |
| 1.58 to 3.16 | ≥ 111 | O=C(Nc1ncc(Cl)s1)C(CC1CCCC1)n1cc(S(=O)(=O)C2CC2)cn1 (stereo not drawn) [Compound 33, N-(5-chlorothiazol-2-yl)-3-cyclopentyl-2-(4-(cyclopropylsulfonyl)-1H-pyrazol-1-yl)propanamide] |
| 1.58 to 3.16 | ≥ 111 | O=C(Nc1ncc(F)s1)C(CC1CCCC1)n1cc(S(=O)(=O)C2CC2)cn1 (stereo not drawn) [Compound 34, 3-cyclopentyl-2-(4-(cyclopropylsulfonyl)-1H-pyrazol-1-yl)-N-(5-fluorothiazol-2-yl)propanamide] |
| ≥ 15.8 | ≤ 90 | O=C(Nc1ncc(F)s1)[C@@H](CC1CCCC1)n1cc(S(=O)(=O)C2CC2)cn1 [Compound 35, (R)-3-cyclopentyl-2-(4-(cyclopropylsulfonyl)-1H-pyrazol-1-yl)-N-(5-fluorothiazol-2-yl)propanamide] |
| 1.58 to 3.16 | ≥ 111 | O=C(Nc1ncc(F)s1)[C@H](CC1CCCC1)n1cc(S(=O)(=O)C2CC2)cn1 [Compound 36, (S)-3-cyclopentyl-2-(4-(cyclopropylsulfonyl)-1H-pyrazol-1-yl)-N-(5-fluorothiazol-2-yl)propanamide] |
| ≥ 15.8 | ≥ 111 | O=C(Nc1ncc(Cl)s1)[C@@H](CC1CCCC1)n1cc(S(=O)(=O)C2CC2)cn1 [Compound 38, (R)-N-(5-chlorothiazol-2-yl)-3-cyclopentyl-2-(4-(cyclopropylsulfonyl)-1H-pyrazol-1-yl)propanamide] |
| 1.58 to 3.16 | ≥ 111 | O=C(Nc1ncc(Cl)s1)[C@H](CC1CCCC1)n1cc(S(=O)(=O)C2CC2)cn1 [Compound 39, (S)-N-(5-chlorothiazol-2-yl)-3-cyclopentyl-2-(4-(cyclopropylsulfonyl)-1H-pyrazol-1-yl)propanamide] |
| ≥ 15.8 | ≤ 90 | O=C(Nc1ncc(Cl)s1)[C@@H](CC1CCOCC1)n1cc(S(=O)(=O)C2CC2)cn1 [Compound 40, (R)-N-(5-chlorothiazol-2-yl)-2-(4-(cyclopropylsulfonyl)-1H-pyrazol-1-yl)-3-(tetrahydro-2H-pyran-4-yl)propanamide] |
| 1.58 to 3.16 | ≤ 90 | CS(=O)(=O)c1cccc2c1cnn2C(CC1CCOCC1)C(=O)Nc1ncc(F)s1 (stereo not drawn) [Compound 41, N-(5-fluorothiazol-2-yl)-2-(4-(methylsulfonyl)-1H-indazole-1-yl)-3-(tetrahydro-2H-pyran-4-yl)propanamide] |
| 1.58 to 3.16 | ≥ 111 | O=C(Nc1ncc(Cl)s1)[C@H](CC1CCOCC1)n1cc(S(=O)(=O)C2CC2)cn1 [Compound 42, (S)-N-(5-chlorothiazol-2-yl)-2-(4-(cyclopropylsulfonyl)-1H-pyrazol-1-yl)-3-(tetrahydro-2H-pyran-4-yl)propanamide] |
| ≥ 15.8 | ≤ 90 | O=C(Nc1ncc(F)s1)[C@@H](CC1CCOCC1)n1cc(S(=O)(=O)C2CCCC2)cn1 [Compound 43, (R)-2-(4-(cyclopentylsulfonyl)-1H-pyrazol-1-yl)-N-(5-fluorothiazol-2-yl)-3-(tetrahydro-2H-pyran-4-yl)propanamide] |
| 0.398 to 1.26 | ≥ 111 | O=C(Nc1ncc(F)s1)[C@H](CC1CCOCC1)n1cc(S(=O)(=O)C2CCCC2)cn1 [Compound 44, (S)-2-(4-(cyclopentylsulfonyl)-1H-pyrazol-1-yl)-N-(5-fluorothiazol-2-yl)-3-(tetrahydro-2H-pyran-4-yl)propanamide] |
| 3.98 to 12.6 | ≥ 111 | O=C(Nc1ccc(Cl)cn1)C(CC1CCOCC1)n1cc(S(=O)(=O)C2CC2)cn1 (stereo not drawn) [Compound 45, N-(5-chloropyridin-2-yl)-2-(4-(cyclopropylsulfonyl)-1H-pyrazol-1-yl)-3-(tetrahydro-2H-pyran-4-yl)propanamide] |
| ≥ 15.8 | 101 to 105 | O=C(Nc1cnccn1)C(CC1CCOCC1)n1cc(S(=O)(=O)C2CC2)cn1 (stereo not drawn) [Compound 46, 2-(4-(cyclopropylsulfonyl)-1H-pyrazol-1-yl)-N-(pyrazin-2-yl)-3-(tetrahydro-2H-pyran-4-yl)propanamide] |
| 3.98 to 12.6 | ≥ 111 | O=C(Nc1ncc(Cl)s1)[C@@H](CC1CCOCC1)n1ncc2cc(S(=O)(=O)C3CC3)ccc21 [Compound 47, (R)-N-(5-chlorothiazol-2-yl)-2-(5-(cyclopropylsulfonyl)-1H-indazol-1-yl)-3-(tetrahydro-2H-pyran-4-yl)propanamide] |
| 0.398 to 1.26 | ≥ 111 | O=C(Nc1ncc(Cl)s1)[C@H](CC1CCOCC1)n1ncc2cc(S(=O)(=O)C3CC3)ccc21 [Compound 48, (S)-N-(5-chlorothiazol-2-yl)-2-(5-(cyclopropylsulfonyl)-1H-indazol-1-yl)-3-(tetrahydro-2H-pyran-4-yl)propanamide] |
